# Measured values published in ChEMBL document CHEMBL5579854, “Targeting Relevant HDACs to Support the Survival of Cone Photoreceptors in Inherited Retinal Diseases: Identification of a Potent Pharmacological Tool with In Vitro and In Vivo Efficacy” (J Med Chem, 2024).
# The source made the active and inactive calls. The rule behind the calls is not given here.
# Columns and labels:
# 661W [1] = assay: Cytoprotective effect against H2O2-induced oxidative stress in mouse 661W cells assessed as increase in acetylated alpha-tubulin level incubated for 24 hrs followed by H2O2 treatment for 3 hrs by Western blot analysis; assay type: functional, cell-based; settings: dose 10-30 µM, time 27.0 hrs
# 661W [2] = assay: Cytoprotective effect against H2O2-induced oxidative stress in mouse 661W cells assessed as increase in acetylated alpha-tubulin level at 10 to 30 uM incubated for 24 hrs followed by H2O2 treatment for 3 hrs by immunofluorescence analysis; assay type: functional, cell-based; settings: dose 10-30 µM, time 27.0 hrs
# [3] = Lipophilicity, logP of compound; assay type: physicochemical; settings: octanol/water
# [4] = Solubility of compound; assay type: physicochemical
# [5] = Metabolic stability in human liver microsomes assessed as compound recovery at 10 uM incubated for 60 mins in presence of NADPH by HPLC analysis; assay type: ADME, Microsome; settings: read-out: Stability
# Cytochrome P450 = assay: Inhibition of CYP in human liver microsomes using ECOD at 1 to 50 uM measured upto 30 mins by fluorescence based assay; assay type: ADME, Microsome; settings: 0.5 h, dose 1-50 µM
# [6] = Inhibition of CYP in mouse liver microsomes using ECOD at 1 to 50 uM measured upto 30 mins by fluorescence based assay; assay type: ADME, Microsome; settings: 0.5 h, dose 1-50 µM
# Cytochrome P450 1A = target: T1, Cytochrome P450 1A (Homo sapiens, UniProt P04798+P05177); assay: Inhibition of CYP1A in human liver microsomes using ECOD at 1 to 50 uM measured upto 30 mins by fluorescence based assay; assay type: ADME, Microsome; settings: 0.5 h, dose 1-50 µM
# T1 sequence (P04798 whole entry): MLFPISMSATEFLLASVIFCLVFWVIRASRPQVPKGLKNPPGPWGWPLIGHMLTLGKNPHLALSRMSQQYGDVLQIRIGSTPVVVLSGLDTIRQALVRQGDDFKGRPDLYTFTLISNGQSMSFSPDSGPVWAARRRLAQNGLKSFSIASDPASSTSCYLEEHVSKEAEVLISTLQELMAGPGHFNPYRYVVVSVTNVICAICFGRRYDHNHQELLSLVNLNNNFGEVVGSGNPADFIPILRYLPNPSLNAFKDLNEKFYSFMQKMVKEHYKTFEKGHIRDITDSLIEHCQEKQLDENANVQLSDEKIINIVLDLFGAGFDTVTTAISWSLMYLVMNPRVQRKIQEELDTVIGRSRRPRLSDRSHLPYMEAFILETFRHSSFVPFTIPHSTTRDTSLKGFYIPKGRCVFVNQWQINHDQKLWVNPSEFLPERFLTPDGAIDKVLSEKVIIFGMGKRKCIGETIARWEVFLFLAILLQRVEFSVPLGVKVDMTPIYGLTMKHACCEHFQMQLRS
# T1 sequence (P05177 whole entry): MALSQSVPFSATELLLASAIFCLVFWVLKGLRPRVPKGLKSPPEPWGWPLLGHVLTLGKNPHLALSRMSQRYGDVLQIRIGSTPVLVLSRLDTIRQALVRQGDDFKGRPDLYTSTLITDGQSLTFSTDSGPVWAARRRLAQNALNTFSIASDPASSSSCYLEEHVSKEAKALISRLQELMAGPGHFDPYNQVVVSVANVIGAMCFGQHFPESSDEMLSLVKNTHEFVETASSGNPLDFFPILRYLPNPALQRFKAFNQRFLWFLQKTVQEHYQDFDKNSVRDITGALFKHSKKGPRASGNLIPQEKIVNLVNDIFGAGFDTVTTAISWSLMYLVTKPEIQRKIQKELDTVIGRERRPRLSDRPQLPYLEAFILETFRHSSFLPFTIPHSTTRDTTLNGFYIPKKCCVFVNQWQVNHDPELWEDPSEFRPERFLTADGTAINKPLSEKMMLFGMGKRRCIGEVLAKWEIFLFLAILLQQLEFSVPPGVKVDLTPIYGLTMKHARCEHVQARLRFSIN
# [7] = Inhibition of CYP1A in mouse liver microsomes using ECOD at 1 to 50 uM measured upto 30 mins by fluorescence based assay; assay type: ADME, Microsome; settings: 0.5 h, dose 1-50 µM
# [8] = Toxicity in Langendorff-perfused Wistar rat heart assessed as effect on QTc prolongation at 0.1 to 30 uM by ECG analysis; assay type: tissue-based; settings: dose 0.1-30 µM
# ARPE-19 [9] = assay: Cytotoxicity against human ARPE-19 cells assessed as cell viability at 1 uM incubated for 24 hrs by MTT assay; assay type: toxicity, cell-based; settings: arpe-19, 24 h
# ARPE-19 [10] = assay: Cytoprotective effect against H2O2-induced oxidative stress in human ARPE-19 cells assessed as increase in cell viability at low concentration incubated for 24 hrs followed by H2O2 treatment by MTT assay; assay type: functional, cell-based
# 661W [11] = assay: Cytoprotective effect against H2O2-induced oxidative stress in mouse 661W cells assessed as increase in acetylated alpha-tubulin level at 30 uM incubated for 24 hrs followed by H2O2 treatment for 3 hrs by Western blot analysis; assay type: functional, cell-based; settings: time 27.0 hrs
# [12] = Toxicity in zebrafish larval dye model harboring atp6v0e1/ucd6 assessed as visual impairment at 20 to 100 uM treated for 2 days; design: species or system Danio rerio; settings: in vivo, 48 h, dose 20-100 µM, time 2 day
# [13] = Toxicity in zebrafish larval dye model harboring atp6v0e1/ucd6 assessed as morphological abnormalities at 20 to 100 uM treated for 2 days; design: species or system Danio rerio; settings: in vivo, 48 h, dose 20-100 µM, time 2 day
# [14] = Toxicity in zebrafish larval dye model harboring atp6v0e1/ucd6 assessed as maximum tolerated dose treated for 2 days; design: species or system Danio rerio; settings: in vivo, 48 h, time 2 day
# Danio rerio [15] = species on record: Danio rerio; assay: Rescue of vision in zebrafish larval dye model harboring atp6v0e1/ucd6 at 100 uM treated for 2 days by OKR analysis; assay type: functional, organism-based; settings: time 2.0 day
# Danio rerio [16] = species on record: Danio rerio; assay: Rescue of visual acuity in zebrafish larval dye model harboring atp6v0e1/ucd6 at 100 uM treated for 2 days by OKR analysis; assay type: functional, organism-based; settings: time 2.0 day
# Cone cell = assay: Induction of cone cell survival in eyes of C57BL/6J mouse model harboring rd10 mutant at 5 to 30 uM, IVT administered bilaterally measured after 5 days by IHC analysis; assay type: functional, tissue-based; settings: Eye, dose 5-30 µM, time 5.0 day
# Mus musculus [17] = assay: Rescue of b-wave amplitude in photopic stimulation in eyes of C57BL/6J mouse model harboring rd10 mutant at 5 to 30 uM, IVT administered bilaterally measured after 5 days by ERG analysis; assay type: functional, tissue-based; settings: Eye, dose 5-30 µM, time 5.0 day
# Mus musculus [18] = assay: Rescue of scotopic response in eyes of C57BL/6J mouse model harboring rd10 mutant at 5 to 30 uM, IVT administered bilaterally measured after 5 days by ERG analysis; assay type: functional, tissue-based; settings: Eye, dose 5-30 µM, time 5.0 day
# Mus musculus [19] = assay: Upregulation of GNAT1 mRNA level in eyes of C57BL/6J mouse model harboring rd10 mutant at 5 to 30 uM, IVT administered bilaterally measured after 5 days by RT-PCR analysis; assay type: functional, tissue-based; settings: Eye, dose 5-30 µM, time 5.0 day
# Mus musculus [20] = assay: Upregulation of Hsp90b1 mRNA level in eyes of C57BL/6J mouse model harboring rd10 mutant at 5 to 30 uM, IVT administered bilaterally measured after 5 days by RT-PCR analysis; assay type: functional, tissue-based; settings: Eye, dose 5-30 µM, time 5.0 day
# Mus musculus [21] = assay: Downregulation of Rps6kl1 mRNA level in eyes of C57BL/6J mouse model harboring rd10 mutant at 5 to 30 uM, IVT administered bilaterally measured after 5 days by RT-PCR analysis; assay type: functional, tissue-based; settings: Eye, dose 5-30 µM, time 5.0 day
# Mus musculus [22] = assay: Inhibition of discontinuities in tight junction pattern in eyes of C57BL/6J mouse model harboring rd10 mutant at 30 uM, IVT administered bilaterally measured after 5 days by ZO-1 staining based analysis; assay type: functional, tissue-based; settings: Eye, time 5.0 day
smiles,measurement,setting,value
O=C(NO)c1ccc(CNC(=O)N2CCc3c(c4ccccc4n3Cc3ccccc3)C2)cc1,Activity,661W [1],Dose-Dependent Effect
same,Activity,661W [2],Active
same,logP,[3],2.94
same,solubility,[4],309 µM
same,"remaining at 1 h, 10 µM",[5],84%
same,inhibition (INH),Cytochrome P450,Not Active
same,inhibition (INH),[6],Not Active
same,inhibition (INH),Cytochrome P450 1A,Not Active
same,inhibition (INH),[7],Not Active
same,Activity,[8],Non-Toxic
same,Activity,ARPE-19 [9],Non-Toxic
same,Activity,ARPE-19 [10],Active
same,Activity,661W [11],Active
same,Activity,[12],Non-Toxic
same,Activity,[13],Non-Toxic
same,MTD,[14],100 µM
same,Activity,Danio rerio [15],Active
same,Activity,Danio rerio [16],inactive
same,Activity,Cone cell,Active
same,Activity,Mus musculus [17],Active
same,Activity,Mus musculus [18],Active
same,Activity,Mus musculus [19],Active
same,Activity,Mus musculus [20],Active
same,Activity,Mus musculus [21],Active
same,inhibition,Mus musculus [22],Active
